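Where inhibition never reached the appropriate level, the endpoint shown equals the highest concentration tested. Otherwise, values were interpolated linearly from a five-concentration, 48-hour dose response in 96-well plates. GI50 is the concentration that inhibits growth by half.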 Active and inactive are the calls of the source. No stated cut-off is given here; in the data, active = GI50 up to about 1.1 µM and inactive = higher.

The values below come from ChEMBL document CHEMBL1201862, “PubChem BioAssay data set” (2004).

Common to all, as to experiment: NCI tumour cell line growth inhibition, 48 h
Assay [1] concerns BT-549.
In assay [2] the test system is CAKI-1.
Assay [3] deals with DU-145.
The test system of assay [4] is HCC 2998.
In assay [5] the test system is HCT-15.
Assay [6] has as its system HL-60.
For assay [7], the system named is Hs-578T.
Assay [8] has as its system IGROV-1.
The test system of assay [9] is LOX IMVI.
Assay [10] relates to M14.
Assay [11] deals with Malme-3M.
Assay [12] relates to NCI-H23.
Assay [13] deals with PC-3.
The subject of assay [14] is SF-295.
Assay [15] deals with SF-539.
For assay [16], the system named is SK-OV-3.
In assay [17] the test system is SNB-19.
For assay [18], the system named is T47D.
For assay [19], the system named is MDA-MB-231.

`COc1cc(S(=O)(=O)Nc2ccc(-c3csc(N4C(=O)C(Cl)C4c4cccs4)n3)cc2)ccc1Cl` (stereo not drawn): the GI50 in assay [1] is 87.7 µM (inactive); in [2], > 100 µM (inactive); in assay [3] it was > 100 µM (inactive); in assay [4], 50.5 µM (inactive); in assay [5], over 100 µM; in assay [6] it was 39.1 µM (inactive). Further, the GI50 is > 100 µM (inactive) in [7]; 18.2 µM (inactive) in [8]; 2.43 µM (inactive) in assay [9]; > 100 µM (inactive) in [10]; > 100 µM (inactive) in assay [11]; 29.4 µM (inactive) in assay [12]. Also, the GI50 is > 100 µM (inactive) in assay [13]; > 100 µM (inactive) in [14]; 32.8 µM (inactive) in assay [15]; > 100 µM (inactive) in [16]; > 100 µM (inactive) in [17]; 54.6 µM (inactive) in [18].
Take `O=[N+]([O-])c1cccc(/C=N/N=c2\ccc3ccccc3[nH]2)c1O`: the GI50 in assay [1] was 3.78 µM (inactive); in assay [2] it was 0.665 µM (active); in assay [3] it was 2.26 µM (inactive); in assay [5] it was 0.146 µM; in assay [6] it was 0.619 µM (active); in [7] it was 16.2 µM (inactive). The GI50 was 2.02 µM (inactive) in [8]; 1.47 µM (inactive) in [9]; 1.13 µM (inactive) in assay [10]; 2.78 µM (inactive) in [19]; 1.88 µM (inactive) in [11]; 1.82 µM (inactive) in assay [12]. Further, the GI50 in [13] was 2.7 µM (inactive); in [14], 1.01 µM (active); in [15] it was 1.84 µM (inactive); in assay [16] it was 1.86 µM (inactive); in assay [17], 4.92 µM (inactive); in assay [18], 0.807 µM (active).
Turning to `S=C(Nc1cccc(Cl)c1)Nc1ccccn1`, the GI50 was > 100 µM (inactive) in assay [1]; > 100 µM (inactive) in assay [2]; > 100 µM (inactive) in assay [3]; over 100 µM in [5]; > 100 µM (inactive) in assay [6]; > 100 µM (inactive) in assay [7]. The GI50 in [8] was > 100 µM (inactive); in assay [9], > 100 µM (inactive); in assay [10] it was > 100 µM (inactive); in assay [11], 27.6 µM (inactive); in [13], > 100 µM (inactive); in [14], > 100 µM (inactive). Moreover, the GI50 in assay [15], in assay [16], in assay [17] and in assay [18] was > 100 µM (inactive) each time.
Regarding `N#Cc1c(O)cc(=O)n2c1[nH]c1ccccc12`, the GI50 in assay [1] was > 100 µM (inactive); in [2], > 100 µM (inactive); in assay [3], > 100 µM (inactive); in [4], > 100 µM (inactive); in assay [5], over 100 µM; in assay [6], > 100 µM (inactive). For the same compound, the GI50 in assay [7], in assay [8], in assay [10], in assay [19], in assay [11] and in assay [12] was > 100 µM (inactive) each time. The GI50 was > 100 µM (inactive) in [13]; 64 µM (inactive) in assay [14]; > 100 µM (inactive) in assay [15]; > 100 µM (inactive) in [16]; > 100 µM (inactive) in [17].
Consider `O=C1O[B-](c2ccccc2)(c2ccccc2)[NH+]2CCCC12` (stereo not drawn), for which the GI50 in assay [1] was 41.8 µM (inactive); in assay [2], 47.4 µM (inactive); in assay [3], > 100 µM (inactive); in [5], 59.3 µM; in assay [6] it was > 100 µM (inactive); in assay [7] it was 56.6 µM (inactive). Besides, the GI50 in assay [8] is > 100 µM (inactive); in assay [9] it was > 100 µM (inactive); in assay [10] it was 40.5 µM (inactive); in assay [19], > 100 µM (inactive); in [11], 51.1 µM (inactive); in assay [12], 74 µM (inactive). Besides, the GI50 was 35 µM (inactive) in assay [13]; > 100 µM (inactive) in [14]; 55.6 µM (inactive) in assay [15]; > 100 µM (inactive) in assay [16]; > 100 µM (inactive) in [17]; 76.9 µM (inactive) in assay [18].
In the case of `COc1nc(C#CC2(O)CCCCC2)nc(OC)n1`, the GI50 in assay [1] is 14.5 µM (inactive); in assay [2] it was 4.19 µM (inactive); in assay [3], 6.79 µM (inactive); in assay [5], 2.69 µM; in assay [6], 2.64 µM (inactive); in assay [7] it was 11.5 µM (inactive). For the same compound, the GI50 in [8] was 11.1 µM (inactive); in [9], 2.83 µM (inactive); in assay [10], 8.65 µM (inactive); in [19], 3.34 µM (inactive); in [11], 3.1 µM (inactive); in assay [12] it was 13.7 µM (inactive). Besides, the GI50 was 5.62 µM (inactive) in [13]; 18 µM (inactive) in assay [14]; 9.16 µM (inactive) in assay [15]; 53.6 µM (inactive) in assay [16]; 38.7 µM (inactive) in [17]; 30.5 µM (inactive) in assay [18].
On to `O=C(O)CNc1ccc(C(=O)O)cc1`, for which the GI50 in assay [1] is > 100 µM (inactive); in assay [2], > 100 µM (inactive); in assay [3], > 100 µM (inactive); in [5] it was over 100 µM; in [6], 2.85 µM (inactive); in assay [7] it was > 100 µM (inactive). Moreover, the GI50 in assay [8], in assay [9], in [10], in assay [19], in [11] and in assay [12] was > 100 µM (inactive) in each case. Also, the GI50 in [13], in assay [14], in assay [15], in assay [16], in assay [17] and in [18] was > 100 µM (inactive) throughout.
Consider `CC1(C)CCCCCCCCCC2CC2CCC(C)(C)C1=O` (stereo not drawn), for which the GI50 is 34.4 µM (inactive) in [1]; 33.5 µM (inactive) in assay [2]; 20.5 µM (inactive) in assay [3]; 16.5 µM in assay [5]; 22 µM (inactive) in assay [6]; 31.3 µM (inactive) in assay [7]. The GI50 was 41.3 µM (inactive) in assay [8]; 19 µM (inactive) in assay [9]; 18.8 µM (inactive) in assay [10]; 17.3 µM (inactive) in assay [19]; 21 µM (inactive) in assay [11]; 40.5 µM (inactive) in [12]. Besides, the GI50 is 28.8 µM (inactive) in assay [13]; 18.3 µM (inactive) in assay [14]; 18.8 µM (inactive) in assay [15]; 34 µM (inactive) in [16]; 34.6 µM (inactive) in assay [17]; 18.9 µM (inactive) in assay [18].
As to `Cc1cn(C2CC(OC(c3ccccc3)(c3ccccc3)c3ccccc3)C(COC(c3ccccc3)(c3ccccc3)c3ccccc3)O2)c(=O)[nH]c1=O` (stereo not drawn), the GI50 in assay [1] was 27.5 µM (inactive); in assay [2], > 100 µM (inactive); in [3] it was > 100 µM (inactive); in [4], > 100 µM (inactive); in [5], 59.2 µM; in assay [6] it was 53.1 µM (inactive). In addition, the GI50 in assay [7] was 38.1 µM (inactive); in assay [8], > 100 µM (inactive); in assay [9], 60 µM (inactive); in assay [10] it was > 100 µM (inactive); in [19], 37.7 µM (inactive); in [11], 68.7 µM (inactive). Besides, the GI50 is 16 µM (inactive) in [13]; > 100 µM (inactive) in [14]; > 100 µM (inactive) in assay [15]; > 100 µM (inactive) in [16]; 11.7 µM (inactive) in assay [17].
For `CN(C)/C=C/C=C(/C=N/S(=O)(=O)C(F)(F)F)C1C=CN(S(=O)(=O)C(F)(F)F)C=C1`, the GI50 was 26.2 µM (inactive) in assay [1]; 25.6 µM (inactive) in assay [2]; 37.2 µM (inactive) in assay [3]; 28.1 µM (inactive) in assay [4]; 23.4 µM in assay [5]; 19.8 µM (inactive) in [6]. Also, the GI50 in assay [7] is 69.2 µM (inactive); in assay [8] it was 54.3 µM (inactive); in assay [9] it was 42.8 µM (inactive); in [10], 36.1 µM (inactive); in [19], 31.1 µM (inactive); in assay [11], 32 µM (inactive). The GI50 in assay [12] was 23.3 µM (inactive); in [14], 38.2 µM (inactive); in assay [16] it was 28.4 µM (inactive); in assay [18], 23.4 µM (inactive).
Turning to `CCCCCCCCCCC[N+]1(Cc2ccccc2)CC2CCN(Cc3ccccc3)CC2C1` (stereo not drawn), the GI50 is 0.305 µM (active) in [1]; 1.4 µM (inactive) in [2]; 0.47 µM (active) in assay [3]; 0.649 µM (active) in assay [4]; 1.52 µM in [5]; 0.106 µM (active) in assay [6]. Further, the GI50 in [7] is 0.354 µM (active); in assay [8], 0.429 µM (active); in [9], 0.382 µM (active); in assay [10], 0.383 µM (active); in [11], 0.342 µM (active); in assay [12], 0.181 µM (active). Moreover, the GI50 in assay [13] was 0.234 µM (active); in assay [14], 1.09 µM (active); in assay [15] it was 1.15 µM (inactive); in assay [16], 1.75 µM (inactive); in [17], 0.371 µM (active); in assay [18], 0.166 µM (active).
With `N#CC(Cc1ccccc1)N(CCC1=CCCCC1)C(c1ccccc1)c1ccccc1` (stereo not drawn), the GI50 was > 100 µM (inactive) in assay [1]; > 100 µM (inactive) in assay [2]; > 100 µM (inactive) in assay [3]; 32 µM (inactive) in [4]; 42.9 µM in [5]; 69.3 µM (inactive) in assay [7]. Besides, the GI50 in assay [8] was > 100 µM (inactive); in assay [10], 18.8 µM (inactive); in [19] it was > 100 µM (inactive); in assay [11], > 100 µM (inactive); in assay [12], 60.1 µM (inactive); in [13], 73.6 µM (inactive). The GI50 is > 100 µM (inactive) in assay [14], > 100 µM (inactive) in [16], > 100 µM (inactive) in assay [17] and 42.3 µM (inactive) in assay [18].
